“And” between values parts separate entries of the source, which are not always exact repeats. Identical values can stand only once. Like-named read-outs stand apart in the source and are kept apart here. Marks after values point to notes of the source that are not given here.
How the values were obtained:
[1] = tested on: human hematopoietic progenitor cells (CD34+ cells); experiment: Blood cell stimulation: CD34+ suspension culture, lineage marker ELISA; format: cell-based
Method: A 96-well-based suspension culture system (Warren et al, Stem Cells 13:167 (1995) for human hematopoietic progenitor cells was used to monitor the commitment and differentiation of CD34+ cells in vitro. Expression of maturation and lineage markers on the cells in culture were measured by ELISA. […] A combination of growth factors was added that stimulates the expression of the appropriate lineage markers. The culture consisted of: IMDM plus 15% FBS, 0.5 ng/ml IL-3, 20 ng/ml SCF, 1 unit/ml EPO, 1 ng/ml GCSF and the indicated concentrations of test compounds. The cells were then fixed with a glutaraldehyde-paraformaldehyde mixture, attaching the cells firmly to the plastic. An ELISA was performed (Warren et al, Stem Cells 13:167 (1995)), using appropriate primary antibodies directed against cell surface markers. The expression of three different lineage markers was measured: CD14 (monocyte), CD15 (neutrophil), and glycophorin A (erythroid).

[2] = tested on: anti-Pn14 antibodies (Pn14-Tetanus Toxin antigen); set-up: species or system BALB/c female mice; conditions: mouse, in vivo
[3] = tested on: delayed type hypersensitivity (DTH) response to oxazalone (OX); set-up: species or system mice; conditions: mouse, in vivo
[4] = tested on: Hybridoma cells (ATCC #CRL-8014, OKT-8); experiment: Production of monoclonal antibodies from hybridomas (sandwich ELISA); format: cell-based; conditions: 200 ρg/ml vs control
Method: Hybridoma cells (ATCC #CRL-8014, OKT-8, secreting an IgG2 anti-human T-cell subset antibody) were growth with or without N-carbobenzoxy-β-alanyl-taurine zinc salt in T25 culture flasks. Cells were inoculated at a density of 10,000 cells/ml and maintained below 500,000 cells/ml in 5 mls of protein-free media containing HyQ-PF-MAB from Hyclone. Aliquots were assayed for Mab production by a sandwich ELISA. Aliquots were diluted to be within the standard range and added to plates precoated with goat anti-mouse IgG by incubating two hours at room temperature. Wells were washed and reacted with diluted supernatants, then washed and detected with peroxidase labeled anti-mouse antibodies.

[5] = Study 2: 1 ug/ml, 1700 cells per well

Molecule | Percent difference (relative to control), monocytes ([1]; Study 1: 1 ng/ml compound) [%] | Percent difference (relative to control), neutrophils ([1]; Study 1: 1 ng/ml compound) [%] | Percent difference (relative to control), red blood cells ([1]; Study 1: 1 ng/ml compound) [%] | Percent difference (relative to control), CD34 cells [1, 5] [%] | Percent difference (relative to control), RBC [1, 5] [%] | Percent difference (relative to control), monocytes [1, 5] [%] | Mean Change in O.D. from pretest, Day 4 [2] | Mean Change in O.D. from pretest, Day 14 [2] | Mean Change in O.D. from pretest, Day 14 ([2]; ip) | Major DTH at 24 hrs [3] | Major DTH at 48 hrs. [3] | Major DTH at either 24 or 48 hrs. [3] | Moderate DTH at 24 hrs [3] | response rate, moderate DTH at 24 hrs [3] | total treated animals with major immune response [3] | total treated animals with major response [3] | Major DTH at 24 hrs ([3]; iv) | Major DTH at 48 hrs. ([3]; iv) | Increase of IgG μg/ml [4] [%] | Increase of IgG ρg/cell [4] [%]
O=C(CCNC(=O)OCc1ccccc1)NCCOP(=O)(O)O [Taurox-BOP, N-carboxybenzoxy-β-alanyl-ethanolamine phosphate] | 18 | 21 | 0 | 33 | 55 | 9 | 0 | 366 | 877 and 515 |  |  |  |  |  |  |  |  |  |  | 
N-carbobenzoxy-β-alanyl-taurine zinc salt |  |  |  |  |  |  |  |  |  | 50* | 50 | 60 | 70 | eight of ten | 14 | 21 | 20 and 10 | 20 and 10 | 316 | 93

From patent US6762174B1 (priority 1998, dated 2004)
